From ChEMBL document CHEMBL1201862, “PubChem BioAssay data set” (2004)
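1) Cells in 96-well plates. 2) Compound, 48 h, 5 concentrations. 3) Linear interpolation between surrounding doses. 4) Unreached endpoint = highest concentration. At the GI50, growth is halved.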 Active and inactive are the calls of the source. No stated cut-off is given here; in the data, active = GI50 up to about 1.1 µM and inactive = higher.

What was measured:
Assay in all cases: inhibition of tumour cell growth, NCI panel, 48 h
[1] = system: A498
[2] = system: COLO 205
[3] = system: HCT-116
[4] = system: HCT-15
[5] = system: HL-60
[6] = system: HOP-62
[7] = system: LOX IMVI
[8] = system: NCI-H226
[9] = system: OVCAR-5
[10] = system: SF-268
[11] = system: SK-MEL-5
[12] = system: SK-OV-3
[13] = system: SNB-19
[14] = system: SNB-75
[15] = system: UO-31

SMILES | GI50 [1] | GI50 [2] | GI50 [3] | GI50 [4] [µM] | GI50 [5] | GI50 [6] | GI50 [7] | GI50 [8] | GI50 [9] | GI50 [10] | GI50 [11] | GI50 [12] | GI50 [13] | GI50 [14] | GI50 [15]
COc1ccc2c(c1)C(=O)C1CC(=O)CCC21 (stereo not given) | > 100 µM (inactive) | > 100 µM (inactive) | > 100 µM (inactive) | > 100 | > 100 µM (inactive) | > 100 µM (inactive) | > 100 µM (inactive) | > 100 µM (inactive) | > 100 µM (inactive) | > 100 µM (inactive) | > 100 µM (inactive) | > 100 µM (inactive) | > 100 µM (inactive) | > 100 µM (inactive) | > 100 µM (inactive)
O=C(O)c1c([N+](=O)[O-])cc(C(F)(F)F)cc1[N+](=O)[O-] | > 100 µM (inactive) | > 100 µM (inactive) | > 100 µM (inactive) | > 100 | > 100 µM (inactive) | > 100 µM (inactive) | > 100 µM (inactive) | > 100 µM (inactive) | > 100 µM (inactive) | > 100 µM (inactive) | > 100 µM (inactive) |  | > 100 µM (inactive) |  | > 100 µM (inactive)
CC(CCCOC(c1ccccc1)(c1ccccc1)c1ccccc1)OC(=O)Nc1ccccc1 (stereo not given) |  | 18.2 µM (inactive) | 11.1 µM (inactive) | 14.4 | 11.6 µM (inactive) | 14.8 µM (inactive) | 12.7 µM (inactive) | 12.6 µM (inactive) | 13.7 µM (inactive) | 12.8 µM (inactive) | 14.1 µM (inactive) | 14.2 µM (inactive) |  | 14.5 µM (inactive) | 11.6 µM (inactive)
CCCCCCCCOCC(O)COC (stereo not given) | > 100 µM (inactive) | > 100 µM (inactive) | > 100 µM (inactive) | > 100 | > 100 µM (inactive) | > 100 µM (inactive) | > 100 µM (inactive) | > 100 µM (inactive) | > 100 µM (inactive) | > 100 µM (inactive) | > 100 µM (inactive) | > 100 µM (inactive) | > 100 µM (inactive) |  | > 100 µM (inactive)
COc1cc2cnc3c4cc(OC(C)C)c(OC)cc4ccc3c2cc1OC | > 100 µM (inactive) | > 100 µM (inactive) | > 100 µM (inactive) | > 100 |  | > 100 µM (inactive) |  |  | > 100 µM (inactive) | > 100 µM (inactive) | > 100 µM (inactive) | > 100 µM (inactive) | > 100 µM (inactive) | > 100 µM (inactive) | > 100 µM (inactive)
O=C(/C(=C/c1ccc(Cl)cc1)c1ccccc1)c1ccccc1 | 23.6 µM (inactive) | 18.8 µM (inactive) | 13.6 µM (inactive) | 15.4 | 19.9 µM (inactive) | 25.9 µM (inactive) | 15.4 µM (inactive) | 17.1 µM (inactive) | 22.6 µM (inactive) | 18.2 µM (inactive) |  | 23.9 µM (inactive) |  | 22.8 µM (inactive) | 27 µM (inactive)
CC1(c2cccc(N)c2)C2C(=O)NC(=O)C1C(=O)NC2=O (stereo not given) | 23.4 µM (inactive) | 23.7 µM (inactive) |  | 36.2 | 19.6 µM (inactive) | 32.2 µM (inactive) | 28.1 µM (inactive) | 28.1 µM (inactive) | 38.6 µM (inactive) | 35.7 µM (inactive) | 18.5 µM (inactive) | 23.9 µM (inactive) | 29.2 µM (inactive) | 28.1 µM (inactive) | 22.3 µM (inactive)
O=C(Cc1ccccc1)N/N=C(/c1nc2ccc([N+](=O)[O-])cc2nc1O)C(O)c1ccccc1Cl (stereo not given) | > 100 µM (inactive) | > 100 µM (inactive) | > 100 µM (inactive) | 40.6 | > 100 µM (inactive) | > 100 µM (inactive) | > 100 µM (inactive) | > 100 µM (inactive) | > 100 µM (inactive) | > 100 µM (inactive) | 41.4 µM (inactive) | > 100 µM (inactive) |  | > 100 µM (inactive) | > 100 µM (inactive)
C/C(CN1C(=O)c2ccccc2C1=O)=N\NS(=O)(=O)c1cccc([N+](=O)[O-])c1 | > 100 µM (inactive) | > 100 µM (inactive) | > 100 µM (inactive) | > 100 | > 100 µM (inactive) | > 100 µM (inactive) |  | > 100 µM (inactive) | > 100 µM (inactive) | > 100 µM (inactive) | > 100 µM (inactive) | > 100 µM (inactive) | > 100 µM (inactive) | > 100 µM (inactive) | > 100 µM (inactive)
C/C(CCn1[nH]c(=O)ccc1=O)=N\NC(=O)C(N)=O | > 100 µM (inactive) | > 100 µM (inactive) | > 100 µM (inactive) | > 100 | > 100 µM (inactive) | > 100 µM (inactive) | > 100 µM (inactive) | > 100 µM (inactive) | > 100 µM (inactive) | > 100 µM (inactive) | > 100 µM (inactive) |  | > 100 µM (inactive) | > 100 µM (inactive) | > 100 µM (inactive)
Cc1nc(Nc2ccc([N+](=O)[O-])cc2)sc1C(/C=C/c1ccc(N(C)C)cc1)=N/NC(=O)c1ccccc1 |  | > 100 µM (inactive) | 63.7 µM (inactive) | 29.6 | 22.6 µM (inactive) | 40 µM (inactive) | 36.6 µM (inactive) | 63 µM (inactive) | > 100 µM (inactive) | 43 µM (inactive) |  | > 100 µM (inactive) | 62.2 µM (inactive) | > 100 µM (inactive) | 89.3 µM (inactive)
Cc1c(Cl)cccc1N1C(=O)C(Cl)=C(Cl)C1=O | > 100 µM (inactive) | > 65.9 µM (inactive) | > 100 µM (inactive) | > 76.9 |  | > 100 µM (inactive) | > 100 µM (inactive) | > 100 µM (inactive) | > 100 µM (inactive) | > 100 µM (inactive) | > 100 µM (inactive) | > 100 µM (inactive) | > 100 µM (inactive) | > 100 µM (inactive) | > 100 µM (inactive)
COc1ccc(/C(C#N)=C(/N)SCc2ccccc2Cl)cc1 | 18.9 µM (inactive) | 20.3 µM (inactive) | 18.8 µM (inactive) |  | 14.3 µM (inactive) | 14.8 µM (inactive) | 15.2 µM (inactive) | 16.4 µM (inactive) | 18.2 µM (inactive) | 16.4 µM (inactive) |  | 27.8 µM (inactive) | > 10 µM (inactive) | 23.2 µM (inactive) | > 10 µM (inactive)
CCOC(=O)c1cn(Cc2ccccc2)c(=O)n1Cc1ccccc1 | > 100 µM (inactive) | > 100 µM (inactive) | > 100 µM (inactive) | 80.2 | 6.93 µM (inactive) | > 100 µM (inactive) | > 100 µM (inactive) | > 100 µM (inactive) | > 100 µM (inactive) | > 100 µM (inactive) | > 100 µM (inactive) | > 100 µM (inactive) | > 100 µM (inactive) | > 100 µM (inactive) | 48.9 µM (inactive)
O=C(O)C1C2CC3CC2CC31 (stereo not given) | > 100 µM (inactive) | > 100 µM (inactive) | > 100 µM (inactive) | > 100 | > 100 µM (inactive) | > 100 µM (inactive) | > 100 µM (inactive) |  | > 100 µM (inactive) | > 100 µM (inactive) | > 100 µM (inactive) | > 100 µM (inactive) | > 100 µM (inactive) | > 100 µM (inactive) | > 100 µM (inactive)
CCC12CC[C@H](C#N)N3CCc4c(n(c5ccccc45)C(=O)C1)C32 (stereo not given in full) | 13.3 µM (inactive) | 19.1 µM (inactive) | 13.9 µM (inactive) | 5.2 |  | 22.9 µM (inactive) | 14.1 µM (inactive) |  | 21.5 µM (inactive) | 17.9 µM (inactive) | 12.7 µM (inactive) | 35.3 µM (inactive) | > 10 µM (inactive) | 5.56 µM (inactive) | 3.1 µM (inactive)
CC(C)(O)[C@@H]1CC[C@@]2(C)CCCC(O)C2(O)C1 (stereo not given in full) | > 100 µM (inactive) | > 100 µM (inactive) | > 100 µM (inactive) | > 100 | > 100 µM (inactive) | > 100 µM (inactive) | > 100 µM (inactive) | > 100 µM (inactive) | > 100 µM (inactive) | > 100 µM (inactive) | > 100 µM (inactive) | > 100 µM (inactive) | > 100 µM (inactive) | > 100 µM (inactive) | > 100 µM (inactive)
CCOC(=O)C[C@@]12CCCNC1(C)CCc1ccccc12 (stereo not given in full) |  | > 100 µM (inactive) | > 100 µM (inactive) | > 100 | > 100 µM (inactive) | > 100 µM (inactive) | > 100 µM (inactive) | > 100 µM (inactive) |  |  | > 100 µM (inactive) | > 100 µM (inactive) | > 100 µM (inactive) |  | > 100 µM (inactive)
COc1cc(C=O)c(-c2cc3c(cc2C=O)OCO3)c(OC)c1OC |  | 92.5 µM (inactive) | 64.3 µM (inactive) | 73.3 | 94.8 µM (inactive) | 108 µM (inactive) | 85.7 µM (inactive) | 93.1 µM (inactive) | > 290 µM (inactive) | 101 µM (inactive) | 94.6 µM (inactive) | 98.6 µM (inactive) | 202 µM (inactive) |  | 
C[C@@H]1C[C@@H]([C@H](O)CC2CC(=O)NC(=O)C2)C(=O)[C@@H](C)C1 [CYCLOHEXIMIDE] |  | 0.0352 µM (active) | 0.0738 µM (active) | 0.0433 | 0.0485 µM (active) | 0.0596 µM (active) | 0.0374 µM (active) | 0.219 µM (active) | 0.141 µM (active) | 0.0438 µM (active) | 0.0248 µM (active) | 0.127 µM (active) | 0.0984 µM (active) | 0.083 µM (active) | 0.0287 µM (active)
